Data as given in paper PMC5218480 (PLoS ONE, 2017).

Tested on: MV-4-11 cells
Assay: Gene expression microarray analysis (Affymetrix PrimeView) and GSEA
Type: cell-based, human
Parameters: RFU PODN (11730768_x_at) / Fold change /veh PODN (11730768_x_at) / RFU LINC00158 (11744669_a_at) / Fold change /veh LINC00158 (11744669_a_at) / RFU DUSP10 (11751237_a_at) / Fold change /veh DUSP10 (11751237_a_at) / RFU ID3 (11757404_x_at) / Fold change /veh ID3 (11757404_x_at) / RFU PLEKHG5 (11737974_s_at) / Fold change /veh PLEKHG5 (11737974_s_at) / RFU LRRC4B (11730491_at) / Fold change /veh LRRC4B (11730491_at) / RFU GIMAP4 (11747438_a_at) / Fold change /veh GIMAP4 (11747438_a_at) / RFU KRT8 (11758183_x_at) / Fold change /veh KRT8 (11758183_x_at) / RFU CNN1 (11734310_a_at) / Fold change /veh CNN1 (11734310_a_at) / RFU VPS37D (11726825_at) / Fold change /veh VPS37D (11726825_at) / RFU C10orf10 (11716522_x_at) / Fold change /veh C10orf10 (11716522_x_at) / RFU KIR2DL2 /// KIR2DL4 /// KIR2DL5A /// KIR2DL5B /// KIR2DS1 /// KIR2DS2 /// KIR2DS3 /// KIR2DS4 /// KIR3DL3 /// KIR3DL3 /// KIR3DS1 (11738374_at) / Fold change /veh KIR2DL2 /// KIR2DL4 /// KIR2DL5A /// KIR2DL5B /// KIR2DS1 /// KIR2DS2 /// KIR2DS3 /// KIR2DS4 /// KIR3DL3 /// KIR3DL3 /// KIR3DS1 (11738374_at) / RFU C1QL1 (11718748_at) / Fold change /veh C1QL1 (11718748_at) / RFU TMPRSS4 (11747572_a_at) / Fold change /veh TMPRSS4 (11747572_a_at) / RFU HAMP (11756126_x_at) / Fold change /veh HAMP (11756126_x_at) / RFU RNFT2 (11725882_a_at) / Fold change /veh RNFT2 (11725882_a_at) / RFU NR4A2 (11747474_a_at) / Fold change /veh NR4A2 (11747474_a_at) / RFU ABCC12 (11746883_a_at) / Fold change /veh ABCC12 (11746883_a_at) / RFU TMEM136 (11760407_x_at) / Fold change /veh TMEM136 (11760407_x_at) / RFU CLDN22 /// WWC2 (11732394_at) / Fold change /veh CLDN22 /// WWC2 (11732394_at) / RFU HLA-DPB1 (11760878_x_at) / Fold change /veh HLA-DPB1 (11760878_x_at) / RFU SPINT1 (11716480_a_at) / Fold change /veh SPINT1 (11716480_a_at) / RFU GAP43 (11754022_s_at) / Fold change /veh GAP43 (11754022_s_at) / RFU A4GNT (11735810_at) / Fold change /veh A4GNT (11735810_at) / RFU PRB3 (11715151_x_at) / Fold change /veh PRB3 (11715151_x_at) / RFU TUBB4B (11761932_at) / Fold change /veh TUBB4B (11761932_at) / RFU CAPN14 (11732068_a_at) / Fold change /veh CAPN14 (11732068_a_at) / RFU TMCC2 (11721928_a_at) / Fold change /veh TMCC2 (11721928_a_at) / RFU IRGQ (11745062_a_at) / Fold change /veh IRGQ (11745062_a_at) / RFU FAM174B (11720279_a_at) / Fold change /veh FAM174B (11720279_a_at) / RFU TMPRSS4 (11748680_a_at) / Fold change /veh TMPRSS4 (11748680_a_at) / RFU FAM212B (11763350_a_at) / Fold change /veh FAM212B (11763350_a_at) / RFU PLEKHG5 (11743358_a_at) / Fold change /veh PLEKHG5 (11743358_a_at) / RFU ZSCAN30 (11745921_a_at) / Fold change /veh ZSCAN30 (11745921_a_at) / RFU CMKLR1 (11741424_a_at) / Fold change /veh CMKLR1 (11741424_a_at) / RFU LOC101060620 /// MAPK8IP1 (11723275_at) / Fold change /veh LOC101060620 /// MAPK8IP1 (11723275_at) / RFU SPTSSB (11747773_x_at) / Fold change /veh SPTSSB (11747773_x_at) / RFU PRSS12 (11739890_at) / Fold change /veh PRSS12 (11739890_at) / RFU BIN1 (11741810_x_at) / Fold change /veh BIN1 (11741810_x_at) / RFU WNT11 (11732464_a_at) / Fold change /veh WNT11 (11732464_a_at) / RFU C10orf10 (11716521_a_at) / Fold change /veh C10orf10 (11716521_a_at) / RFU C5orf56 (11738089_at) / Fold change /veh C5orf56 (11738089_at) / RFU CYB561 (11721691_x_at) / Fold change /veh CYB561 (11721691_x_at) / RFU ANKRD19P (11752326_a_at) / Fold change /veh ANKRD19P (11752326_a_at) / RFU OR2T12 /// OR2T33 /// OR2T8 (11738714_s_at) / Fold change /veh OR2T12 /// OR2T33 /// OR2T8 (11738714_s_at) / RFU VCAN (11748164_a_at) / Fold change /veh VCAN (11748164_a_at) / RFU JSRP1 (11732532_at) / Fold change /veh JSRP1 (11732532_at) / RFU KRTAP10-11 (11738290_x_at) / Fold change /veh KRTAP10-11 (11738290_x_at) / RFU MYO3A (11730013_a_at) / Fold change /veh MYO3A (11730013_a_at) / RFU EBF3 (11725865_a_at) / Fold change /veh EBF3 (11725865_a_at) / RFU CAMK2N1 (11719241_x_at) / Fold change /veh CAMK2N1 (11719241_x_at) / RFU C5orf56 (11738088_a_at) / Fold change /veh C5orf56 (11738088_a_at) / RFU OLFML3 (11715873_a_at) / Fold change /veh OLFML3 (11715873_a_at) / RFU LOC100653217 /// NTM (11731650_a_at) / Fold change /veh LOC100653217 /// NTM (11731650_a_at) / RFU MAPK11 (11762145_a_at) / Fold change /veh MAPK11 (11762145_a_at) / RFU FIZ1 (11724087_x_at) / Fold change /veh FIZ1 (11724087_x_at) / RFU OASL (11726364_x_at) / Fold change /veh OASL (11726364_x_at) / RFU SOX15 (11748057_x_at) / Fold change /veh SOX15 (11748057_x_at) / RFU CD79A (11719716_a_at) / Fold change /veh CD79A (11719716_a_at) / RFU HIST1H1D (11736915_at) / Fold change /veh HIST1H1D (11736915_at) / RFU CASKIN2 (11723855_a_at) / Fold change /veh CASKIN2 (11723855_a_at) / RFU LOC730098 (11760151_x_at) / Fold change /veh LOC730098 (11760151_x_at) / RFU OR4N2 (11742367_at) / Fold change /veh OR4N2 (11742367_at) / RFU PRRT2 (11749266_a_at) / Fold change /veh PRRT2 (11749266_a_at) / RFU SNX32 (11753110_a_at) / Fold change /veh SNX32 (11753110_a_at) / RFU CDHR5 (11726645_a_at) / Fold change /veh CDHR5 (11726645_a_at) / RFU RCAN1 (11760418_a_at) / Fold change /veh RCAN1 (11760418_a_at) / RFU FAM167A (11723789_a_at) / Fold change /veh FAM167A (11723789_a_at) / RFU FAM26E (11764081_at) / Fold change /veh FAM26E (11764081_at) / RFU ISYNA1 (11749810_s_at) / Fold change /veh ISYNA1 (11749810_s_at) / RFU ACY1 (11761880_at) / Fold change /veh ACY1 (11761880_at) / RFU 11764098_at / Fold change /veh 11764098_at / RFU SAMD14 (11745864_x_at) / Fold change /veh SAMD14 (11745864_x_at) / RFU NPB (11741838_a_at) / Fold change /veh NPB (11741838_a_at) / RFU TMPRSS6 (11731388_a_at) / Fold change /veh TMPRSS6 (11731388_a_at) / RFU KRTAP10-2 (11738614_at) / Fold change /veh KRTAP10-2 (11738614_at) / RFU ARHGAP8 /// PRR5-ARHGAP8 (11727945_x_at) / Fold change /veh ARHGAP8 /// PRR5-ARHGAP8 (11727945_x_at) / RFU KRTAP5-7 /// NADSYN1 (11734609_at) / Fold change /veh KRTAP5-7 /// NADSYN1 (11734609_at) / RFU RASL12 (11751679_a_at) / Fold change /veh RASL12 (11751679_a_at) / RFU CDKN2B (11736163_a_at) / Fold change /veh CDKN2B (11736163_a_at) / RFU PRF1 (11729649_at) / Fold change /veh PRF1 (11729649_at) / RFU, ZNF638 /// ZNF638-IT1 / Fold change vs veh, ZNF638 /// ZNF638-IT1 / RFU, PANK3 / Fold change vs veh, PANK3 / RFU, SH3YL1 / Fold change vs veh, SH3YL1 / RFU, ZEB2 / Fold change vs veh, ZEB2 / RFU, NRIP1 / Fold change vs veh, NRIP1 / RFU, PTTG1IP / Fold change vs veh, PTTG1IP / RFU, CAPN2 / Fold change vs veh, CAPN2 / RFU, MED14 / Fold change vs veh, MED14 / RFU, SNORA58 / Fold change vs veh, SNORA58 / RFU, C1orf63 / Fold change vs veh, C1orf63 / RFU, LRRFIP1 / Fold change vs veh, LRRFIP1 / RFU, NDUFAF7 / Fold change vs veh, NDUFAF7 / RFU, SLC12A2 / Fold change vs veh, SLC12A2 / RFU, IBTK / Fold change vs veh, IBTK / RFU, ESF1 / Fold change vs veh, ESF1 / Fold change vs veh, TMEM50B / RFU, TAOK1 / Fold change vs veh, TAOK1 / RFU, ACBD3 / Fold change vs veh, ACBD3 / RFU, TMA16 / Fold change vs veh, TMA16 / RFU, RWDD3 / Fold change vs veh, RWDD3 / RFU, BCAT1 / Fold change vs veh, BCAT1 / RFU, EDEM3 / Fold change vs veh, EDEM3 / RFU, TMEM33 / Fold change vs veh, TMEM33 / RFU, WDR75 / Fold change vs veh, WDR75 / RFU, AHCTF1 / Fold change vs veh, AHCTF1 / RFU, TFRC / Fold change vs veh, TFRC / RFU, ZDHHC17 / Fold change vs veh, ZDHHC17 / RFU, NOM1 / Fold change vs veh, NOM1 / RFU, ARL8B / Fold change vs veh, ARL8B / RFU, ZBTB11 / Fold change vs veh, ZBTB11 / RFU, TAMM41 / Fold change vs veh, TAMM41 / RFU, KIAA1704 /// LOC100996395 / Fold change vs veh, KIAA1704 /// LOC100996395 / RFU, ING1 / Fold change vs veh, ING1 / RFU, TRMT61B / Fold change vs veh, TRMT61B / RFU, FUBP3 / Fold change vs veh, FUBP3 / RFU, TP53 / Fold change vs veh, TP53 / RFU, TNKS2 / Fold change vs veh, TNKS2 / RFU, ZFP14 / Fold change vs veh, ZFP14 / RFU, ACTR2 / Fold change vs veh, ACTR2 / RFU, PPP3R1 / Fold change vs veh, PPP3R1 / RFU, PIK3R1 / Fold change vs veh, PIK3R1 / RFU, HNRNPA1 / Fold change vs veh, HNRNPA1 / RFU, RNF170 / Fold change vs veh, RNF170 / RFU, ZNF28 / Fold change vs veh, ZNF28 / RFU, RNGTT / Fold change vs veh, RNGTT / RFU, OGT / Fold change vs veh, OGT / RFU, BRD1 / Fold change vs veh, BRD1 / RFU, MARS / Fold change vs veh, MARS / RFU, ZNF655 / Fold change vs veh, ZNF655 / RFU, FAHD1 / Fold change vs veh, FAHD1 / RFU, BDP1 / Fold change vs veh, BDP1 / RFU, LRRCC1 / Fold change vs veh, LRRCC1 / RFU, ARID1A / Fold change vs veh, ARID1A / RFU, ZNF146 / Fold change vs veh, ZNF146 / RFU, ZNF330 / Fold change vs veh, ZNF330 / RFU, GPN3 / Fold change vs veh, GPN3 / RFU, C9orf123 / Fold change vs veh, C9orf123 / RFU, N4BP2L2 / Fold change vs veh, N4BP2L2 / RFU, ARFIP1 / Fold change vs veh, ARFIP1 / RFU, FAM179B / Fold change vs veh, FAM179B / RFU, BCL10 / Fold change vs veh, BCL10 / RFU, UHRF1BP1L / Fold change vs veh, UHRF1BP1L / RFU, BET1 / Fold change vs veh, BET1 / RFU, CNOT2 / Fold change vs veh, CNOT2 / RFU, ZNF268 / Fold change vs veh, ZNF268 / Fold change vs veh, ZNF507 / RFU, DGCR2 / Fold change vs veh, DGCR2 / RFU, WDSUB1 / Fold change vs veh, WDSUB1 / Fold change vs veh, HSP90B1 /// MIR3652 / RFU, ADSS / Fold change vs veh, ADSS / RFU, GK / Fold change vs veh, GK / RFU, ZNF148 / Fold change vs veh, ZNF148 / RFU, TAF9 / Fold change vs veh, TAF9 / RFU, SLC1A5 / Fold change vs veh, SLC1A5 / RFU, SLMO2 / Fold change vs veh, SLMO2 / RFU, ABCC4 / Fold change vs veh, ABCC4 / RFU, LOC101060439 /// RAP1B / Fold change vs veh, LOC101060439 /// RAP1B / RFU, RFX7 / Fold change vs veh, RFX7 / RFU, GTPBP10 / Fold change vs veh, GTPBP10 / RFU, CNEP1R1 / Fold change vs veh, CNEP1R1 / RFU, BIVM-ERCC5 /// ERCC5 / Fold change vs veh, BIVM-ERCC5 /// ERCC5 / RFU, ILF3 / Fold change vs veh, ILF3 / RFU 11762660_at / Fold change /veh 11762660_at / RFU VCAN (11757783_s_at) / Fold change /veh VCAN (11757783_s_at) / RFU DDX43 (11728927_at) / Fold change /veh DDX43 (11728927_at) / RFU KRT8 (11758188_x_at) / Fold change /veh KRT8 (11758188_x_at) / RFU NKD1 (11759106_at) / Fold change /veh NKD1 (11759106_at) / RFU SRD5A1 (11742802_a_at) / Fold change /veh SRD5A1 (11742802_a_at) / RFU TPSAB1 /// TPSB2 (11721975_s_at) / Fold change /veh TPSAB1 /// TPSB2 (11721975_s_at) / RFU GSTM3 (11746129_a_at) / Fold change /veh GSTM3 (11746129_a_at) / RFU IL23R (11737362_x_at) / Fold change /veh IL23R (11737362_x_at) / RFU TMEM51 (11727254_a_at) / Fold change /veh TMEM51 (11727254_a_at) / RFU PIWIL2 (11732686_x_at) / Fold change /veh PIWIL2 (11732686_x_at) / RFU ORM1 (11744905_x_at) / Fold change /veh ORM1 (11744905_x_at) / RFU CCDC152 (11743942_at) / Fold change /veh CCDC152 (11743942_at) / RFU ECM1 (11717891_a_at) / Fold change /veh ECM1 (11717891_a_at) / RFU IL23R (11748794_a_at) / Fold change /veh IL23R (11748794_a_at) / RFU TNFAIP8L3 (11732012_x_at) / Fold change /veh TNFAIP8L3 (11732012_x_at) / RFU MBOAT4 (11741988_at) / Fold change /veh MBOAT4 (11741988_at) / RFU 11764193_at / Fold change /veh 11764193_at / RFU TMEM53 (11763286_at) / Fold change /veh TMEM53 (11763286_at) / RFU MAGEB2 (11727129_at) / Fold change /veh MAGEB2 (11727129_at) / RFU TMEM200A (11744735_a_at) / Fold change /veh TMEM200A (11744735_a_at) / RFU CCDC152 (11751479_a_at) / Fold change /veh CCDC152 (11751479_a_at) / RFU FAM211A (11726209_a_at) / Fold change /veh FAM211A (11726209_a_at) / RFU RGS16 (11746705_a_at) / Fold change /veh RGS16 (11746705_a_at) / RFU VCAN (11755009_s_at) / Fold change /veh VCAN (11755009_s_at) / RFU RHOB (11743442_s_at) / Fold change /veh RHOB (11743442_s_at) / RFU RGS16 (11720943_a_at) / Fold change /veh RGS16 (11720943_a_at) / RFU RGS16 (11720944_at) / Fold change /veh RGS16 (11720944_at) / RFU, VPS4B / Fold change vs veh, VPS4B / RFU, CREB1 / Fold change vs veh, CREB1 / RFU, DNAJC13 / Fold change vs veh, DNAJC13 / RFU, GNAQ / Fold change vs veh, GNAQ / RFU, CDK5R1 / Fold change vs veh, CDK5R1 / RFU, ZRANB3 / Fold change vs veh, ZRANB3 / RFU, CUL4A / Fold change vs veh, CUL4A / RFU, CCNY / Fold change vs veh, CCNY / RFU, UFL1 / Fold change vs veh, UFL1 / RFU, COG3 / Fold change vs veh, COG3 / RFU, DIAPH2 / Fold change vs veh, DIAPH2 / RFU, SKA2 / Fold change vs veh, SKA2 / RFU, AFF3 / Fold change vs veh, AFF3 / RFU, LMF1 / Fold change vs veh, LMF1 / RFU, IPO11 / Fold change vs veh, IPO11 / RFU, DFFB / Fold change vs veh, DFFB / RFU, FOXP1 / Fold change vs veh, FOXP1 / RFU, CARD8 / Fold change vs veh, CARD8 / RFU, STRN3 / Fold change vs veh, STRN3 / RFU, ADK / Fold change vs veh, ADK / RFU, RASSF2 / Fold change vs veh, RASSF2 / RFU, WIPF1 / Fold change vs veh, WIPF1 / RFU, LARP1B / Fold change vs veh, LARP1B / RFU, RASA1 / Fold change vs veh, RASA1 / RFU, RB1 / Fold change vs veh, RB1 / RFU, PPFIA1 / Fold change vs veh, PPFIA1 / RFU, MAT2A / Fold change vs veh, MAT2A / RFU, CCT5 / Fold change vs veh, CCT5 / RFU, WDR92 / Fold change vs veh, WDR92 / RFU, CUX1 / Fold change vs veh, CUX1 / RFU, TTC7A / Fold change vs veh, TTC7A / RFU, TMEM135 / Fold change vs veh, TMEM135 / RFU, DEPTOR / Fold change vs veh, DEPTOR / RFU, CPM / Fold change vs veh, CPM / RFU, DNAJB6 / Fold change vs veh, DNAJB6 / RFU, CACNA2D3 / Fold change vs veh, CACNA2D3 / RFU, DTX4 / Fold change vs veh, DTX4 / RFU, TFCP2 / Fold change vs veh, TFCP2 / RFU, GMCL1 /// GMCL1P1 / Fold change vs veh, GMCL1 /// GMCL1P1 / RFU, AEBP2 / Fold change vs veh, AEBP2 / RFU, SNHG1 /// SNORD22 /// SNORD25 /// SNORD26 /// SNORD27 /// SNORD28 /// SNORD29 /// SNORD31 / Fold change vs veh, SNHG1 /// SNORD22 /// SNORD25 /// SNORD26 /// SNORD27 /// SNORD28 /// SNORD29 /// SNORD31 / Fold change (Aza/veh), C12orf56 (ProbeSet 11735607_a_at) / Fold change (ACY-1035/veh), C12orf56 (ProbeSet 11735607_a_at) / Fold change (Aza/veh), FGFR1OP (ProbeSet 11751329_s_at) / Fold change (ACY-1035/veh), FGFR1OP (ProbeSet 11751329_s_at) / Fold change (Aza/veh), VPS36 (ProbeSet 11739960_a_at) / Fold change (ACY-1035/veh), VPS36 (ProbeSet 11739960_a_at) / RFU SYPL1 (11715823_x_at) / Fold change /veh SYPL1 (11715823_x_at) / RFU IGFBP7 (11715501_s_at) / Fold change /veh IGFBP7 (11715501_s_at) / RFU REEP3 (11722064_at) / Fold change /veh REEP3 (11722064_at) / RFU IGLL1 (11728026_x_at) / Fold change /veh IGLL1 (11728026_x_at): dose or concentration left out as unconfirmed
Conditions: MV-4-11 cells, 48 hours

For `Nc1ncn([C@@H]2O[C@H](CO)[C@@H](O)[C@H]2O)c(=O)n1` [azacitidine], the “RFU VCAN (11755009_s_at)” value was 15.18 RFU.
